The results in this text go back to US20060241078A1, “Pharmaceutical compositions comprising a contraceptive agent in solution and a teratogen” (priority 2005, published 2006).

This series can be described thus: Solubility of estrogen and progestin in solubilizing agents and oils (visual, dropwise solvent addition).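 Also: about 10 mg estrogen or progestin titrated with solubilizing agent or oil, added dropwise with shaking until fully dissolved, completion judged by eye under light.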
[1] abbreviates: solvent/oil: MAPEG 400 DO PEG ester.
[2] abbreviates: solvent/oil: Supernatant of soybean oil containing isotretinoin (40 mg isotretinoin particles in 1 gram of oil, particles removed by centrifugation).

For `C#C[C@]1(OC(C)=O)CC[C@H]2[C@@H]3CCC4=CC(=NO)CC[C@@H]4[C@H]3CC[C@@]21CC` (mixture of isomers) [Norgestimate, norgestimate], the Solubility is, setting by setting: (solvent/oil: Crodamol EO) 2.6 mg drug/g solvent or oil; (solvent/oil: Crodamol GTCC-PN) 3.4 mg drug/g solvent or oil; (solvent/oil: Crovol A40) 6.7 mg drug/g solvent or oil; (solvent/oil: Ethanol) 20.5 mg drug/g solvent or oil; under setting [1], 9.5 mg drug/g solvent or oil; (solvent/oil: Myvacet 9-45K) 4.3 mg drug/g solvent or oil. The Solubility is 1.9 mg drug/g solvent or oil (solvent/oil: Soybean oil) and 0.802 mg drug/g solvent or oil under setting [2].

Turning to `C#C[C@]1(O)CC[C@H]2[C@@H]3CCc4cc(O)ccc4[C@H]3CC[C@@]21C` [Ethinyl estradiol, ethinyl estradiol], the Solubility is, setting by setting: (solvent/oil: Crodamol EO) 12.94 mg drug/g solvent or oil; (solvent/oil: Crodamol GTCC-PN) 12.03 mg drug/g solvent or oil; (solvent/oil: Crovol A40) 21.37 mg drug/g solvent or oil; (solvent/oil: Ethanol) 206 mg drug/g solvent or oil; under setting [1], 12.08 mg drug/g solvent or oil; (solvent/oil: Myvacet 9-45K) 18.08 mg drug/g solvent or oil. Moreover, the Solubility reads like this: (solvent/oil: Soybean oil) 5.32 mg drug/g solvent or oil; under setting [2], 2.89 mg drug/g solvent or oil.

With `C#C[C@]1(OC(C)=O)CC[C@H]2[C@@H]3CCC4=CC(=O)CC[C@@H]4[C@H]3CC[C@@]21C` [Norethindrone Acetate, norethindrone acetate], the Solubility reads like this: (solvent/oil: Crodamol EO) 14.42 mg drug/g solvent or oil; (solvent/oil: Crodamol GTCC-PN) 17.94 mg drug/g solvent or oil; (solvent/oil: Crovol A40) 15.85 mg drug/g solvent or oil; (solvent/oil: Ethanol) 49.46 mg drug/g solvent or oil; under setting [1], 9.34 mg drug/g solvent or oil; (solvent/oil: Myvacet 9-45K) 14.47 mg drug/g solvent or oil. For the same compound, the Solubility by setting is: (solvent/oil: Soybean oil) 6.41 mg drug/g solvent or oil; under setting [2], 3.92 mg drug/g solvent or oil.
